Laboratory results from paper PMC8468039, “Development of New Meridianin/Leucettine-Derived Hybrid Small Molecules as Nanomolar Multi-Kinase Inhibitors with Antitumor Activity” (Biomedicines, 2021).

Assays:
Assay in all cases: NCI growth inhibition (SRB) assay
Format in all cases: cell-based
786-0 = conditions: Homo sapiens, 786-0, Renal Cancer, single dose 10 µM, 48 h, read-out: Percent Growth Inhibition (GI)
Experimental: (§1) The antitumor assay was performed according to the protocol of the Drug Evaluation Branch, NCI, Bethesda. A 48 h drug exposure protocol was adopted, and sulforhodamine B (SRB) assay was utilized to assess the cell growth and viability, as reported earlier.
(§2) The inhibition results of tumor cell growth by the newly synthesized compounds (5a–5g) are described in Table 4. The reported measurements have been performed at the NIH National Cancer Institute, USA by a standardized assay including a panel of 60 different tumor cell lines (Supplementary Data). The following cancer cell types were included in these assays: Leukemia, non-small cell lung cancer, colon cancer, CNS cancer, melanoma, ovarian cancer, renal cancer, prostate, and breast cancer. […] Additionally, the 3,4-dimethoxy substituted compound (5b) also suffered poor activity against the cancer cell lines.

A498 = conditions: Homo sapiens, A498, Renal Cancer, single dose 10 µM, 48 h, read-out: Percent Growth Inhibition (GI)
Experimental: as §1, §2

ACHN = conditions: Homo sapiens, Renal Cancer, single dose 10 µM, 48 h, read-out: Percent Growth Inhibition (GI)
Experimental: as §1, §2

CAKI-1 = conditions: Homo sapiens, CAKI-1, Renal Cancer, single dose 10 µM, 48 h, read-out: Percent Growth Inhibition (GI)
Experimental: as §1, §2

CCRF-CEM = conditions: Homo sapiens, Leukemia, single dose 10 µM, 48 h, read-out: Percent Growth Inhibition (GI)
Experimental: as §1, §2

COLO 205 = conditions: Homo sapiens, COLO 205, Colon Cancer, single dose 10 µM, 48 h, read-out: Percent Growth Inhibition (GI)
Experimental: as §1, §2

HCT-116 = conditions: Homo sapiens, HCT-116, Colon Cancer, single dose 10 µM, 48 h, read-out: Percent Growth Inhibition (GI)
Experimental: as §1, §2

HCT-15 = conditions: Homo sapiens, HCT-15, Colon Cancer, single dose 10 µM, 48 h, read-out: Percent Growth Inhibition (GI)
Experimental: as §1, §2

HL-60(TB) = conditions: Homo sapiens, Leukemia, single dose 10 µM, 48 h, read-out: Percent Growth Inhibition (GI)
Experimental: as §1, §2

HOP-92 = conditions: Homo sapiens, HOP-92, Non-Small Cell Lung Cancer, single dose 10 µM, 48 h, read-out: Percent Growth Inhibition (GI)
Experimental: as §1, §2

HS 578T = conditions: Homo sapiens, Breast Cancer, single dose 10 µM, 48 h, read-out: Percent Growth Inhibition (GI)
Experimental: as §1, §2

HT29 = conditions: Homo sapiens, HT-29, HT29, Colon Cancer, single dose 10 µM, 48 h, read-out: Percent Growth Inhibition (GI)
Experimental: as §1, §2

IGROV1 = conditions: Homo sapiens, IGROV-1, IGROV1, Ovarian Cancer, single dose 10 µM, 48 h, read-out: Percent Growth Inhibition (GI)
Experimental: as §1, §2

K-562 = conditions: Homo sapiens, K562, K-562, Leukemia, single dose 10 µM, 48 h, read-out: Percent Growth Inhibition (GI)
Experimental: as §1, §2

KM12 = conditions: Homo sapiens, KM12, Colon Cancer, single dose 10 µM, 48 h, read-out: Percent Growth Inhibition (GI)
Experimental: as §1, §2

MCF7 = conditions: Homo sapiens, MCF7, Breast Cancer, single dose 10 µM, 48 h, read-out: Percent Growth Inhibition (GI)
Experimental: as §1, §2

MOLT-4 = conditions: Homo sapiens, MOLT-4, Leukemia, single dose 10 µM, 48 h, read-out: Percent Growth Inhibition (GI)
Experimental: as §1, §2

NCI-H522 = conditions: Homo sapiens, NCI-H522, Non-Small Cell Lung Cancer, single dose 10 µM, 48 h, read-out: Percent Growth Inhibition (GI)
Experimental: as §1, §2

PC-3 = conditions: Homo sapiens, PC-3, Prostate Cancer, single dose 10 µM, 48 h, read-out: Percent Growth Inhibition (GI)
Experimental: as §1, §2

RPMI-8226 = conditions: Homo sapiens, RPMI-8226, Leukemia, single dose 10 µM, 48 h, read-out: Percent Growth Inhibition (GI)
Experimental: as §1, §2

RXF 393 = conditions: Homo sapiens, RXF 393, Renal Cancer, single dose 10 µM, 48 h, read-out: Percent Growth Inhibition (GI)
Experimental: as §1, §2

SF-539 = conditions: Homo sapiens, SF-539, CNS Cancer, single dose 10 µM, 48 h, read-out: Percent Growth Inhibition (GI)
Experimental: as §1, §2

SNB-75 = conditions: Homo sapiens, SNB-75, CNS Cancer, single dose 10 µM, 48 h, read-out: Percent Growth Inhibition (GI)
Experimental: as §1, §2

SR = conditions: Homo sapiens, Leukemia, single dose 10 µM, 48 h, read-out: Percent Growth Inhibition (GI)
Experimental: as §1, §2

T-47D = conditions: Homo sapiens, T47D, Breast Cancer, single dose 10 µM, 48 h, read-out: Percent Growth Inhibition (GI)
Experimental: as §1, §2

UACC-62 = conditions: Homo sapiens, UACC-62, Melanoma, single dose 10 µM, 48 h, read-out: Percent Growth Inhibition (GI)
Experimental: as §1, §2

UO-31 = conditions: Homo sapiens, UO-31, Renal Cancer, single dose 10 µM, 48 h, read-out: Percent Growth Inhibition (GI)
Experimental: as §1, §2

SMILES | inhibition at 10 µM (786-0) [%] | inhibition at 10 µM (A498) [%] | inhibition at 10 µM (ACHN) [%] | inhibition at 10 µM (CAKI-1) [%] | inhibition at 10 µM (CCRF-CEM) [%] | inhibition at 10 µM (COLO 205) [%] | inhibition at 10 µM (HCT-116) [%] | inhibition at 10 µM (HCT-15) [%] | inhibition at 10 µM (HL-60(TB)) [%] | inhibition at 10 µM (HOP-92) [%] | inhibition at 10 µM (HS 578T) [%] | inhibition at 10 µM (HT29) [%] | inhibition at 10 µM (IGROV1) [%] | inhibition at 10 µM (K-562) [%] | inhibition at 10 µM (KM12) [%] | inhibition at 10 µM (MCF7) [%] | inhibition at 10 µM (MOLT-4) [%] | inhibition at 10 µM (NCI-H522) [%] | inhibition at 10 µM (PC-3) [%] | inhibition at 10 µM (RPMI-8226) [%] | further results
COc1ccc(Oc2nc(Nc3ccc(N4CCOCC4)cc3)ncc2NC(=O)c2cc(OC)c(OC)c(OC)c2)cc1 [5c, 3,4,5-Trimethoxy-N-(4-(4-methoxyphenoxy)-2-((4-morpholinophenyl)amino)pyrimidin-5-yl)benzamide] | 44.2 | 38.3 | 4.83 | 28.1 | 30.5 | 21.6 | 23.9 | 34.4 | 31 | 15.8 | 3.23 | 47.4 | 11.9 | 20.4 | 3.99 | 7.94 | 31.6 | 2.25 | 11.6 | 18.8 | inhibition at 10 µM (RXF 393): 50.6%; inhibition at 10 µM (SF-539): 7.64%; inhibition at 10 µM (SNB-75): 3.59%; inhibition at 10 µM (SR): 64.4%; inhibition at 10 µM (T-47D): 0.52%; inhibition at 10 µM (UACC-62): -0.63%; inhibition at 10 µM (UO-31): 42.3%
CCOc1cc(OCC)cc(C(=O)Nc2cnc(Nc3ccc(N4CCOCC4)cc3)nc2Oc2ccc(OC)cc2)c1 [5d, 3,5-Diethoxy-N-(4-(4-methoxyphenoxy)-2-((4-morpholinophenyl)amino)pyrimidin-5-yl)benzamide] | 7.41 | 17.9 | 20.4 | 20.6 | 26.1 | -2.11 | 6.73 | 13.2 | 22.8 | 3.34 | 7.96 | 9.54 | 0.72 | 30.7 | 14 | 14.4 | 38.2 | 29.8 | 27.3 | 25.6 | inhibition at 10 µM (RXF 393): 27.5%; inhibition at 10 µM (SF-539): 8.01%; inhibition at 10 µM (SNB-75): 19.2%; inhibition at 10 µM (SR): 33.2%; inhibition at 10 µM (T-47D): 18.4%; inhibition at 10 µM (UACC-62): 12%; inhibition at 10 µM (UO-31): 29.9%
COc1ccc(Oc2nc(Nc3ccc(N4CCOCC4)cc3)ncc2NC(=O)Cc2cc(OC)cc(OC)c2)cc1 [5e, 2-(3,5-Dimethoxyphenyl)-N-(4-(4-methoxyphenoxy)-2-((4-morpholinophenyl)amino)pyrimidin-5-yl)acetamide] | 0.75 | -6.85 | -0.26 | -2.58 | -4.73 | -22.4 | 0.34 | 1.13 | -6.34 | 4.46 | 1.64 | -8.47 | -9.02 | 2.31 | 1.32 | 18.9 | -0.81 | 8.4 | 8.05 | 11.3 | inhibition at 10 µM (RXF 393): -8.16%; inhibition at 10 µM (SF-539): 2.09%; inhibition at 10 µM (SNB-75): -3.1%; inhibition at 10 µM (SR): 13.2%; inhibition at 10 µM (T-47D): 10.2%; inhibition at 10 µM (UACC-62): 1.34%; inhibition at 10 µM (UO-31): 19.4%
COc1ccc(Oc2nc(Nc3ccc(N4CCOCC4)cc3)ncc2NC(=O)c2ccnc([N+](=O)[O-])c2)cc1 [5f, N-(4-(4-Methoxyphenoxy)-2-((4-morpholinophenyl)amino)pyrimidin-5-yl)-2-nitroisonicotinamide] | 5.78 | 6.39 | 1.61 | 13.7 | 16.7 | -14.6 | -0.19 | 32.8 | -3.19 | 1.12 | 6.7 | -8.86 | 1.91 | 10.9 | -1.85 | 12.5 | -5.98 | 9.77 | 13.8 | 16.3 | inhibition at 10 µM (RXF 393): -0.36%; inhibition at 10 µM (SF-539): 7.72%; inhibition at 10 µM (SNB-75): -4.97%; inhibition at 10 µM (SR): 27.4%; inhibition at 10 µM (T-47D): 5.93%; inhibition at 10 µM (UACC-62): 21.4%; inhibition at 10 µM (UO-31): 29%
